Experimental data reported in patent US10168342B2, “Lipid probes and uses thereof” (THE SCRIPPS RESEARCH INSTITUTE, priority 2015, dated 2019).

Legend:
Assay in all cases: isoTOP-ABPP mapping of AEA-DA-modified peptides in Neuro2a cells
Assay type in all cases: cell-based
[1] = biological target: T1, AEA-DA-modified peptides in Neuro2a cells (Mus musculus, UniProt Q9CPU0); conditions: AEA-DA-modified peptide GLO1 Q9CPU0 160-180, SEQ ID NO 42; probe 100 μM, 12 replicates
T1 construct: endogenous in cells; host or cells: Neuro2a

[2] = biological target: T2, AEA-DA-modified peptides in Neuro2a cells (Mus musculus, UniProt Q9CPQ8); conditions: AEA-DA-modified peptide ATP5L Q9CPQ8 36-55, SEQ ID NO 19; probe 100 μM, 12 replicates
T2 construct: endogenous in cells; host or cells: Neuro2a

[3] = biological target: T3, AEA-DA-modified peptides in Neuro2a cells (Mus musculus, UniProt Q9D2R6); conditions: AEA-DA-modified peptide CCDC56 Q9D2R6 84-94, SEQ ID NO 22; probe 100 μM, 12 replicates
T3 construct: endogenous in cells; host or cells: Neuro2a

[4] = biological target: T4, AEA-DA-modified peptides in Neuro2a cells (Mus musculus, UniProt Q8VC28); conditions: AEA-DA-modified peptide AKR1C13 Q8VC28 48-69, SEQ ID NO 7; probe 100 μM, 12 replicates
T4 construct: endogenous in cells; host or cells: Neuro2a

[5] = biological target: T5, AEA-DA-modified peptides in Neuro2a cells (Mus musculus, UniProt Q99K48); conditions: AEA-DA-modified peptide NONO Q99K48 122-138, SEQ ID NO 69; probe 100 μM, 12 replicates
T5 construct: endogenous in cells; host or cells: Neuro2a

[6] = biological target: T6, AEA-DA-modified peptides in Neuro2a cells (Mus musculus, UniProt Q9D379); conditions: AEA-DA-modified peptide EPHX1 Q9D379 296-329, SEQ ID NO 39; probe 100 μM, 12 replicates
T6 construct: endogenous in cells; host or cells: Neuro2a

[7] = biological target: T7, AEA-DA-modified peptides in Neuro2a cells (Mus musculus, UniProt Q80UU9); conditions: probe 100 μM, 12 replicates
T7 construct: endogenous in cells; host or cells: Neuro2a

[8] = biological target: T8, AEA-DA-modified peptides in Neuro2a cells (Mus musculus, UniProt O08579); conditions: AEA-DA-modified peptide EMD O08579 176-205, SEQ ID NO 37; probe 100 μM, 12 replicates
T8 construct: endogenous in cells; host or cells: Neuro2a

[9] = biological target: T9, AEA-DA-modified peptides in Neuro2a cells (Mus musculus, UniProt P62259); conditions: AEA-DA-modified peptide YWHAE P62259 197-226, SEQ ID NO 121; probe 100 μM, 12 replicates
T9 construct: endogenous in cells; host or cells: Neuro2a

[10] = biological target: T10, AEA-DA-modified peptides in Neuro2a cells (Mus musculus, UniProt P10649); conditions: AEA-DA-modified peptide GSTM1 P10649 109-123, SEQ ID NO 44; probe 100 μM, 12 replicates
T10 construct: endogenous in cells; host or cells: Neuro2a

[11] = biological target: T11, AEA-DA-modified peptides in Neuro2a cells (Mus musculus, UniProt Q9Z0V8); conditions: probe 100 μM, 12 replicates
T11 construct: endogenous in cells; host or cells: Neuro2a
T11 sequence (Q9Z0V8 whole entry): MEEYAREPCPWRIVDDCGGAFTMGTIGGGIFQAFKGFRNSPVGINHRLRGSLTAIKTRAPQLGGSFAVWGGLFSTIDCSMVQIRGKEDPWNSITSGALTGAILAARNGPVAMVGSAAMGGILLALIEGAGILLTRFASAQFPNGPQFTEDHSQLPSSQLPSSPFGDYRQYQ

T7 sequence (Q80UU9 whole entry): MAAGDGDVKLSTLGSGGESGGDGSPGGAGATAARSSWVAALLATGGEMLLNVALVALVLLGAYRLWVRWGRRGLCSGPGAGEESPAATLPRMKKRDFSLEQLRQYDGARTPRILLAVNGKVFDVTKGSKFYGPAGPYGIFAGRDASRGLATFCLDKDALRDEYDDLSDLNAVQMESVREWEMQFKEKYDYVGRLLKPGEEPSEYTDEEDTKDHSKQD
T5 sequence (Q99K48 whole entry): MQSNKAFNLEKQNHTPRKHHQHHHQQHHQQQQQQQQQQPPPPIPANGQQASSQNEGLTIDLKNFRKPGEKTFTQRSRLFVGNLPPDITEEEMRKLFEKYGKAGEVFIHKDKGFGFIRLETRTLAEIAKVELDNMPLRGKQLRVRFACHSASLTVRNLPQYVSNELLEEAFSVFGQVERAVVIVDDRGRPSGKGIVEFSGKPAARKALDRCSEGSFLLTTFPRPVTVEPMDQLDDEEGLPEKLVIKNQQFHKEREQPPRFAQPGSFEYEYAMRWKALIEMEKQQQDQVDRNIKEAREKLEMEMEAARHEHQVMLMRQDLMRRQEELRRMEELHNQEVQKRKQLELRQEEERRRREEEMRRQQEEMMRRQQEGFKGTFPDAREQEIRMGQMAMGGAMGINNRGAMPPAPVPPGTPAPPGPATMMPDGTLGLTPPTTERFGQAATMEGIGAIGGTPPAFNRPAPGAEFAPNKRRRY
T10 sequence (P10649 whole entry): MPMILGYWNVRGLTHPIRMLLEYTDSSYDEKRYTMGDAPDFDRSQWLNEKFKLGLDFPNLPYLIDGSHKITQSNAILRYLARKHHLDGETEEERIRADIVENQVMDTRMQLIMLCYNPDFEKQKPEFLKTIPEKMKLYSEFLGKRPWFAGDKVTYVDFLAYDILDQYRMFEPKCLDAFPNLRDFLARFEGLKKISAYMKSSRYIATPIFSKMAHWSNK
T2 sequence (Q9CPQ8 whole entry): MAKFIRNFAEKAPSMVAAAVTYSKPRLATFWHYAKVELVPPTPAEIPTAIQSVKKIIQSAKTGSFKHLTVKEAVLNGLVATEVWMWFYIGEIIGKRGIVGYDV
T6 sequence (Q9D379 whole entry): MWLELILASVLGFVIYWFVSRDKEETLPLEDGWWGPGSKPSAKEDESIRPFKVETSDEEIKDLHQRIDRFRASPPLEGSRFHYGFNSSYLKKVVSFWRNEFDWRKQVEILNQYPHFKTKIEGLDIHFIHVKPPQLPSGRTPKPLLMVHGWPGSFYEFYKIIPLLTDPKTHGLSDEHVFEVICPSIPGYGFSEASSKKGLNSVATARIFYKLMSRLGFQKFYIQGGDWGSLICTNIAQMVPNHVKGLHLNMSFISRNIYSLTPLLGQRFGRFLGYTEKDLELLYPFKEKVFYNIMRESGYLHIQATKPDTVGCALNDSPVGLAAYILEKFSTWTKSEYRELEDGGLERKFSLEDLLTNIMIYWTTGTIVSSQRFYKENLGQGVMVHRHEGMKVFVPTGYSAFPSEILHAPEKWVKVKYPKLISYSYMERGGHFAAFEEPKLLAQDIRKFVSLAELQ
T1 sequence (Q9CPU0 whole entry): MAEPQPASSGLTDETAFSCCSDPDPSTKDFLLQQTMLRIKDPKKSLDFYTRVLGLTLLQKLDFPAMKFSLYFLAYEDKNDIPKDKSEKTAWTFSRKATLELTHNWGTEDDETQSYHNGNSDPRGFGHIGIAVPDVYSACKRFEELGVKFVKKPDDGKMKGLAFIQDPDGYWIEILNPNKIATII
T3 sequence (Q9D2R6 whole entry): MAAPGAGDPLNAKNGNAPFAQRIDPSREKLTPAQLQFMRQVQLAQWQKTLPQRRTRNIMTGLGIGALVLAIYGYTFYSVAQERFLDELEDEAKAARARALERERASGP
T9 sequence (P62259 whole entry): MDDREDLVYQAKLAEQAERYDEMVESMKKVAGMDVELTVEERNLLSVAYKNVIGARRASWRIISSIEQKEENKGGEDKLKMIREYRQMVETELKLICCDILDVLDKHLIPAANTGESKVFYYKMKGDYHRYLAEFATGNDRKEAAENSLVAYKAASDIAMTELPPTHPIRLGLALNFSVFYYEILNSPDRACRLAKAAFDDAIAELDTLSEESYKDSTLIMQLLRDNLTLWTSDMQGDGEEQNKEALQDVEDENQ
T4 sequence (Q8VC28 whole entry): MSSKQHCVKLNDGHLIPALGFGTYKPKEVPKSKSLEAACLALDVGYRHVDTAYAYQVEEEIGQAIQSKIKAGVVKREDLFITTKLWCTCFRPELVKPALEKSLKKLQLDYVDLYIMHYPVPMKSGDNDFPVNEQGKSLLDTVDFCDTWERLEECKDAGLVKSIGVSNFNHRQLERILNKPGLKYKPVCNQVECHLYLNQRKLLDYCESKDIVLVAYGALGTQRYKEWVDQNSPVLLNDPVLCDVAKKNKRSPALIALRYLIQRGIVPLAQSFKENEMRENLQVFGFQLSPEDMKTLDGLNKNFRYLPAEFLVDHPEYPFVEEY
T8 sequence (O08579 whole entry): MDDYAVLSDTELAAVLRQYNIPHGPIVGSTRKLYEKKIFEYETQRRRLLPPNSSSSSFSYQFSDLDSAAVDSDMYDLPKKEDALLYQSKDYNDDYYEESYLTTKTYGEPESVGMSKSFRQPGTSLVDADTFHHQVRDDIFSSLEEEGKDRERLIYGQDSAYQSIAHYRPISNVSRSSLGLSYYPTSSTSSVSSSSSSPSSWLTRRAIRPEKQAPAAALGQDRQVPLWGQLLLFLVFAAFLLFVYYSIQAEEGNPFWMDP

C#CCCCC1(CC/C=C\C/C=C\C/C=C\CCCC(=O)NCCO)N=N1 [AEA-DA, (5Z,8Z,11Z)-N-(2-hydroxyethyl)-14-(3-(pent-4-yn-1-yl)-3H-diazirin-3-yl)tetradeca-5,8,11-trienamide]
Times observed [1]: 2
Times observed [2]: 3
Times observed [3]: 2
Times observed [4]: 4
Times observed [5]: 3
Times observed [6]: 8
Times observed ([7]; AEA-DA-modified peptide PGRMC2 Q80UU9 74-92, SEQ ID NO 84): 2
Times observed ([7]; AEA-DA-modified peptide PGRMC2 Q80UU9 130-144, SEQ ID NO 83): 9
Times observed [8]: 2
Times observed [9]: 8
Times observed [10]: 4
Times observed ([11]; AEA-DA-modified peptide TIMM17A Q9Z0V8 13-36, SEQ ID NO 111): 9
Times observed ([11]; AEA-DA-modified peptide TIMM17A Q9Z0V8 85-107, SEQ ID NO 112): 4
